Results published in patent US10869871B2, “Compositions and methods of modulating short-chain dehydrogenase activity” (CASE WESTERN RESERVE UNIVERSITY, priority 2013, dated 2020).

Assays:
cell culture = assay: Toxicity: concentration needed to decrease cell numbers in a cell culture assay; assay type: cell-based
Description: (§1) Time to inhibition refers to the time needed to inhibit the generation of NADH by 15-PGDH from the moment with drug is added into the reaction mix. Delta Tm refers to the shift in melting temperature of recombinant 15-PGDH in the presence of drug (with cofactor NADH also present). Concentration of Full Cell Line Reporter Induction refers to the concentration of drug that needs to be added to reporter cell line to achieve maximal induction of the 15-PGDH-luciferase gene fusion reporter cassette, as measured by luciferase assays. Hepatocyte stability refers to the half-life of compound in the presence of hepatocytes in culture. Toxicity refers to the concentration of compound needed to decrease cell numbers in a cell culture assay.

[1] = 21 day toxicity study in FVB mice (daily weights); assay type: in vivo, mouse; details: 5 mg/kg IP twice daily for 21 days
Hepatocyte stability = assay type: in vitro ADME; details: compound in presence of hepatocytes in culture; in words
Description: as §1

[2] = Survival of lethally irradiated mice after bone marrow transplant (30 days); assay type: in vivo, mouse; details: 5 mg/kg IP bid
Description: A matched control cohort received injections with vehicle only. On day one mice received an infusion of donor marrow at doses of 100,000 cells; 200,000 cells; or 500,000 cells. […] Among mice receiving 200,000 donor cells, all control mice were dead by day 12.

[3] = Survival of mice after whole body irradiation; assay type: in vivo, mouse
[4] = Survival of 11Gy irradiated C57BL/6J mice receiving bone marrow allograft; assay type: in vivo, mouse; details: 5 mg/kg IP bid
Description: The experimental design is depicted in FIG. 50.
Under the conditions of the mouse colony during this study, control mice receiving 100,000-500,000 cells are all dead between days 4-13 of study. […] Such activity would be of particular utility in settings, such as transplantation with umbilical cord stem cells, in which donor cell numbers are limited.

bone marrow = assay: Competitive bone marrow transplant chimerism (CD45.2 donor treated); assay type: in vivo, mouse; details: donor 5 mg/kg IP daily for 3 doses; weeks 12 and 16
Description: On day 3 mice were sacrificed, marrow flushed and mixed at a 1:1 ratio with vehicle treated CD45.1 marrow. 2 million whole BM cells were injected into the tail vein of lethally irradiated CD45.1 mice and percent chimerism measured via flow cytometry at weeks 8, 12, 16.

[5] = system: 15-PGDH-luciferase fusion reporter in V9m, LS174T and V503 colon cancer cell lines; assay: 15-PGDH-luciferase fusion reporter induction in colon cancer cell lines; assay type: cell-based; details: V9m, LS174T, V503; relative to DMSO
blood and bone marrow = assay: Blood and bone marrow recovery after transplant of 500,000 donor marrow cells; assay type: in vivo, mouse
15-PGDH protein = assay: Western blot of 15-PGDH protein levels in treated cell lines; assay type: cell-based; details: […] compound for 48 hours
liver = assay: Liver regeneration after partial hepatectomy, C57BL/6J mice; assay type: in vivo; details: 5 mg/kg IP bid, one mouse each
colon = assay: Dextran sodium sulfate (DSS) induced colitis in FVB mice; assay type: in vivo, mouse; details: 22 days of study

SMILES: CCCC[S+]([O-])c1sc2nc(-c3cccs3)cc(-c3ccccc3)c2c1N (centres unmarked) [SW033291, 2-(butylsulfinyl)-4-phenyl-6-(thiophen-2-yl)thieno[2,3-b]pyridin-3-amine]
- Toxicity (cell culture): >10 µM
- mouse weight during treatment [1]: no evidence for SW033291 reducing mouse weight
- Hepatocyte stability (Hepatocyte stability): Stable > couple hrs
- median survival versus control ([2]; 100,000 donor cells): approximate doubling of median survival
- survival at 30 days ([2]; 500,000 donor cells): all survived
- number of mice surviving ([3]; 7 Gy, 5 mg/kg IP daily for 7 doses, Day 0): 3
- number of mice surviving ([3]; 7 Gy, 5 mg/kg IP daily for 7 doses, Day 6): 3
- number of mice surviving ([3]; 7 Gy, 5 mg/kg IP daily for 7 doses, Day 7): 3
- number of mice surviving ([3]; 7 Gy, 5 mg/kg IP daily for 7 doses, Day 8): 3
- number of mice surviving ([3]; 7 Gy, 5 mg/kg IP daily for 7 doses, Day 9): 3
- number of mice surviving ([3]; 7 Gy, 5 mg/kg IP daily for 7 doses, Day 10): 3
- number of mice surviving ([3]; 7 Gy, 5 mg/kg IP daily for 7 doses, Day 11): 3
- number of mice surviving ([3]; 7 Gy, 5 mg/kg IP daily for 7 doses, Day 12): 3
- number of mice surviving ([3]; 7 Gy, 5 mg/kg IP daily for 7 doses, Day 13): 3
- number of mice surviving ([3]; 7 Gy, 5 mg/kg IP daily for 7 doses, Day 14): 3
- number of mice surviving ([3]; 7 Gy, 5 mg/kg IP daily for 7 doses, Day 15): 3
- appearance of mice ([3]; 7 Gy, 5 mg/kg IP daily for 7 doses, Day 25 (cell reads Looks Healthy)): Healthy
- number of mice surviving ([3]; 9 Gy, 5 mg/kg IP daily for 7 doses, Day 0): 3
- number of mice surviving ([3]; 9 Gy, 5 mg/kg IP daily for 7 doses, Day 6): 3
- number of mice surviving ([3]; 9 Gy, 5 mg/kg IP daily for 7 doses, Day 7): 3
- number of mice surviving ([3]; 9 Gy, 5 mg/kg IP daily for 7 doses, Day 8): 3
- number of mice surviving ([3]; 9 Gy, 5 mg/kg IP daily for 7 doses, Day 9): 3
- number of mice surviving ([3]; 9 Gy, 5 mg/kg IP daily for 7 doses, Day 10): 3
- number of mice surviving ([3]; 9 Gy, 5 mg/kg IP daily for 7 doses, Day 11): 3
- number of mice surviving ([3]; 9 Gy, 5 mg/kg IP daily for 7 doses, Day 12): 2
- number of mice surviving ([3]; 9 Gy, 5 mg/kg IP daily for 7 doses, Day 13): 2
- number of mice surviving ([3]; 9 Gy, 5 mg/kg IP daily for 7 doses, Day 14): 1
- number of mice surviving ([3]; 9 Gy, 5 mg/kg IP daily for 7 doses, Day 15): 0
- number of mice surviving ([3]; 11 Gy, 5 mg/kg IP 1 dose/daily for 7 days (Table 7), Day 0): 3
- number of mice surviving ([3]; 11 Gy, 5 mg/kg IP 1 dose/daily for 7 days (Table 7), Day 5): 3
- number of mice surviving ([3]; 11 Gy, 5 mg/kg IP 1 dose/daily for 7 days (Table 7), Day 6): 3
- number of mice surviving ([3]; 11 Gy, 5 mg/kg IP 1 dose/daily for 7 days (Table 7), Day 7): 3
- number of mice surviving ([3]; 11 Gy, 5 mg/kg IP 1 dose/daily for 7 days (Table 7), Day 8): 2
- number of mice surviving ([3]; 11 Gy, 5 mg/kg IP 1 dose/daily for 7 days (Table 7), Day 9): 1
- number of mice surviving ([3]; 11 Gy, 5 mg/kg IP 1 dose/daily for 7 days (Table 7), Day 10): 0
- number of mice surviving ([3]; 11 Gy, 5 mg/kg IP 1 dose/daily, continuous every day, Day 0): 3
- number of mice surviving ([3]; 11 Gy, 5 mg/kg IP 1 dose/daily, continuous every day, Day 5): 3
- number of mice surviving ([3]; 11 Gy, 5 mg/kg IP 1 dose/daily, continuous every day, Day 6): 3
- number of mice surviving ([3]; 11 Gy, 5 mg/kg IP 1 dose/daily, continuous every day, Day 7): 3
- number of mice surviving ([3]; 11 Gy, 5 mg/kg IP 1 dose/daily, continuous every day, Day 8): 3
- number of mice surviving ([3]; 11 Gy, 5 mg/kg IP 1 dose/daily, continuous every day, Day 9): 2
- number of mice surviving ([3]; 11 Gy, 5 mg/kg IP 1 dose/daily, continuous every day, Day 10): 0
- number of mice surviving ([3]; 11 Gy, 5 mg/kg IP 2 dose daily for 7 days, Day 0): 3
- number of mice surviving ([3]; 11 Gy, 5 mg/kg IP 2 dose daily for 7 days, Day 5): 3
- number of mice surviving ([3]; 11 Gy, 5 mg/kg IP 2 dose daily for 7 days, Day 6): 3
- number of mice surviving ([3]; 11 Gy, 5 mg/kg IP 2 dose daily for 7 days, Day 7): 3
- number of mice surviving ([3]; 11 Gy, 5 mg/kg IP 2 dose daily for 7 days, Day 8): 3
- number of mice surviving ([3]; 11 Gy, 5 mg/kg IP 2 dose daily for 7 days, Day 9): 2
- number of mice surviving ([3]; 11 Gy, 5 mg/kg IP 2 dose daily for 7 days, Day 10): 0
- longer survival versus vehicle ([3]; 11Gy, 5 mg/kg IP daily for 7 doses): 48 h
- number of mice surviving ([3]; 11 Gy, 5 mg/kg IP daily for 7 doses (Table 6), Day 0): 3
- number of mice surviving ([3]; 11 Gy, 5 mg/kg IP daily for 7 doses (Table 6), Day 5): 3
- number of mice surviving ([3]; 11 Gy, 5 mg/kg IP daily for 7 doses (Table 6), Day 6): 3
- number of mice surviving ([3]; 11 Gy, 5 mg/kg IP daily for 7 doses (Table 6), Day 7): 3
- number of mice surviving ([3]; 11 Gy, 5 mg/kg IP daily for 7 doses (Table 6), Day 8): 3
- number of mice surviving ([3]; 11 Gy, 5 mg/kg IP daily for 7 doses (Table 6), Day 9): 2
- number of mice surviving ([3]; 11 Gy, 5 mg/kg IP daily for 7 doses (Table 6), Day 10): 0
- longer survival on average versus vehicle ([3]; 11Gy, any of the 5 mg/kg dosing schedules): 1 to 2 days
- number of surviving mice ([4]; 1 × 10^5 donor cells, Day 0): 3
- number of surviving mice ([4]; 1 × 10^5 donor cells, Day 1): 3
- number of surviving mice ([4]; 1 × 10^5 donor cells, Day 2): 3
- number of surviving mice ([4]; 1 × 10^5 donor cells, Day 3): 3
- number of surviving mice ([4]; 1 × 10^5 donor cells, Day 4): 2
- number of surviving mice ([4]; 1 × 10^5 donor cells, Day 5): 1
- number of surviving mice ([4]; 1 × 10^5 donor cells, Day 6): 0
- number of surviving mice ([4]; 2 × 10^5 donor cells, Day 0): 3
- number of surviving mice ([4]; 2 × 10^5 donor cells, Day 1): 3
- number of surviving mice ([4]; 2 × 10^5 donor cells, Day 2): 3
- number of surviving mice ([4]; 2 × 10^5 donor cells, Day 3): 3
- number of surviving mice ([4]; 2 × 10^5 donor cells, Day 4): 3
- number of surviving mice ([4]; 2 × 10^5 donor cells, Day 5): 3
- number of surviving mice ([4]; 2 × 10^5 donor cells, Day 6): 2
- number of surviving mice ([4]; 2 × 10^5 donor cells, Day 7): 2
- number of surviving mice ([4]; 2 × 10^5 donor cells, Day 8): 2
- number of surviving mice ([4]; 2 × 10^5 donor cells, Day 9): 2
- number of surviving mice ([4]; 2 × 10^5 donor cells, Day 10): 2
- number of surviving mice ([4]; 2 × 10^5 donor cells, Day 11): 2
- number of surviving mice ([4]; 2 × 10^5 donor cells, Day 12): 1
- number of surviving mice ([4]; 2 × 10^5 donor cells, Day 13): 0
- number of surviving mice ([4]; 5 × 10^5 donor cells, Day 0): 3
- number of surviving mice ([4]; 5 × 10^5 donor cells, Day 1): 3
- number of surviving mice ([4]; 5 × 10^5 donor cells, Day 2): 3
- number of surviving mice ([4]; 5 × 10^5 donor cells, Day 3): 3
- number of surviving mice ([4]; 5 × 10^5 donor cells, Day 4): 3
- number of surviving mice ([4]; 5 × 10^5 donor cells, Day 5): 3
- number of surviving mice ([4]; 5 × 10^5 donor cells, Day 6): 3
- number of surviving mice ([4]; 5 × 10^5 donor cells, Day 7): 3
- number of surviving mice ([4]; 5 × 10^5 donor cells, Day 8): 2
- number of surviving mice ([4]; 5 × 10^5 donor cells, Day 9): 2
- number of surviving mice ([4]; 5 × 10^5 donor cells, Day 10): 2
- number of surviving mice ([4]; 5 × 10^5 donor cells, Day 11): 2
- number of surviving mice ([4]; 5 × 10^5 donor cells, Day 12): 2
- number of surviving mice ([4]; 5 × 10^5 donor cells, Day 13): 2
- number of surviving mice ([4]; 5 × 10^5 donor cells, Day 19): 2
- percent blood chimerism of CD45.2 marked cells (bone marrow): significantly increased
- luciferase activity of 15-PGDH luciferase fusion cells [5]: increase luciferase activity
- total platelet count versus control (blood and bone marrow; day 5 after transplant): significantly higher total platelet count
- total white count versus control (blood and bone marrow; day 5 after transplant): significantly higher total white count
- platelets (blood and bone marrow; day 8 after transplant): 77,000
- neutrophils (blood and bone marrow; day 12 after transplant): 332
- neutrophils (blood and bone marrow; day 18 after transplant): 835
- levels of 15-PGDH protein (western blot) (15-PGDH protein): increase levels of 15-PGDH protein
- serum ALT levels versus control (liver): lower
- change from baseline weight versus control (colon): greater weight at all time points
